What was measured:
[1] = target: T1, TAS1R2 (Homo sapiens, UniProt Q8TE23); assay: cryo-EM structures of human/human and human/mouse receptor with advantame; EC50 from cell-based calcium imaging (human/human)
T1 construct: VFT domain of TAS1R2 in the TAS1R2/TAS1R3 heterodimer; with TAS1R3 (human; also mouse TAS1R3)
T1 sequence (Q8TE23 22-839): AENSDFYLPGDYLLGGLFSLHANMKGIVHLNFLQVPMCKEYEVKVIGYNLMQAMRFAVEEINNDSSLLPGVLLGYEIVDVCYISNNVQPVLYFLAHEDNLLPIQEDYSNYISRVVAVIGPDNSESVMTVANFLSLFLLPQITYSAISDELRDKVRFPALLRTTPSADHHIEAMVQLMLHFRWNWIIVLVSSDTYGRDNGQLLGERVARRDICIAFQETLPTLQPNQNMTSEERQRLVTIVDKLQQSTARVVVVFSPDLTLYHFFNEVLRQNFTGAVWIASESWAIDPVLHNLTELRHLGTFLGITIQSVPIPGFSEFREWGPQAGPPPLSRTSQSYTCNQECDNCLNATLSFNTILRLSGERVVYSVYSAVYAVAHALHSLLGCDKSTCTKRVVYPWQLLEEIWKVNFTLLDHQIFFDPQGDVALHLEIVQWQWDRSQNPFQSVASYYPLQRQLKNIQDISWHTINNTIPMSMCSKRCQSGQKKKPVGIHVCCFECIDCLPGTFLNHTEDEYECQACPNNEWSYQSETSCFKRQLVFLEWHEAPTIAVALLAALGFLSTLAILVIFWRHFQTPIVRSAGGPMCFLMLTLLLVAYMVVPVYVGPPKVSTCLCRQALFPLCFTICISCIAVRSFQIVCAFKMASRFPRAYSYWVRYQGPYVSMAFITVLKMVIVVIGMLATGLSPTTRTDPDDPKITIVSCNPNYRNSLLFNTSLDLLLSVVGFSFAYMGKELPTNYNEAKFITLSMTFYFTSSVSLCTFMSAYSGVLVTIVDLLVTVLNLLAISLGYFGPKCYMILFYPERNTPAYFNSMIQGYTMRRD
T1 sequence (Q7RTX0 21-852 partner): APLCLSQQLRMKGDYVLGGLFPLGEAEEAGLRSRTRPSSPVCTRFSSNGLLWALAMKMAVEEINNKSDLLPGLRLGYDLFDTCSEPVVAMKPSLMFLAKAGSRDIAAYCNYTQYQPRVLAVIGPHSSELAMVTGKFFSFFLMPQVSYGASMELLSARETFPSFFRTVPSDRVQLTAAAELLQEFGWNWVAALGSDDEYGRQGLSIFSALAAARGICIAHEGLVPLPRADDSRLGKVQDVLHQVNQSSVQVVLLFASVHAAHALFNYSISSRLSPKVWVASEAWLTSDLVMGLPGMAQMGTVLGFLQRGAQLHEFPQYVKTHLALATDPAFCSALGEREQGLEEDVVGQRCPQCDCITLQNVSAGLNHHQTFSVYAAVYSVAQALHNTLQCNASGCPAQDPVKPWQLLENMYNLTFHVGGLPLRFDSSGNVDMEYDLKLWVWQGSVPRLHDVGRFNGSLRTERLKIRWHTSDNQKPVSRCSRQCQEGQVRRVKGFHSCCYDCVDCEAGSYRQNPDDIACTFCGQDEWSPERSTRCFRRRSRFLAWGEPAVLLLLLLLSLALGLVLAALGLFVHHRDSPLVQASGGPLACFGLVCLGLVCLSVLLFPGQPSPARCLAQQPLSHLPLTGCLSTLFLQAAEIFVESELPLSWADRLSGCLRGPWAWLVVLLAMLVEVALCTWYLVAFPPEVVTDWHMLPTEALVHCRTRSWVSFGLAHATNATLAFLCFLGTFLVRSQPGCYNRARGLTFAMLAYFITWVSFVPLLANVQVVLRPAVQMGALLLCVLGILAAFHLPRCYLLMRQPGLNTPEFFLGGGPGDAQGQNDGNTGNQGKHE
From the text: cryo-EM structures of human/human and human/mouse receptor with advantame; EC50 from cell-based calcium imaging (human/human) on TAS1R2 | Advantame also yields well-defined ligand density in the TAS1R2 VFT pocket of both human/mouse and human/human receptors

[2] = target: T2, TAS1R2 (Homo sapiens, UniProt Q8TE23); assay: cell-based calcium imaging of the expressed human/human receptor
T2 construct: TAS1R2/TAS1R3 heterodimer; with TAS1R3 (human)
T2 sequence (Q8TE23 20-839): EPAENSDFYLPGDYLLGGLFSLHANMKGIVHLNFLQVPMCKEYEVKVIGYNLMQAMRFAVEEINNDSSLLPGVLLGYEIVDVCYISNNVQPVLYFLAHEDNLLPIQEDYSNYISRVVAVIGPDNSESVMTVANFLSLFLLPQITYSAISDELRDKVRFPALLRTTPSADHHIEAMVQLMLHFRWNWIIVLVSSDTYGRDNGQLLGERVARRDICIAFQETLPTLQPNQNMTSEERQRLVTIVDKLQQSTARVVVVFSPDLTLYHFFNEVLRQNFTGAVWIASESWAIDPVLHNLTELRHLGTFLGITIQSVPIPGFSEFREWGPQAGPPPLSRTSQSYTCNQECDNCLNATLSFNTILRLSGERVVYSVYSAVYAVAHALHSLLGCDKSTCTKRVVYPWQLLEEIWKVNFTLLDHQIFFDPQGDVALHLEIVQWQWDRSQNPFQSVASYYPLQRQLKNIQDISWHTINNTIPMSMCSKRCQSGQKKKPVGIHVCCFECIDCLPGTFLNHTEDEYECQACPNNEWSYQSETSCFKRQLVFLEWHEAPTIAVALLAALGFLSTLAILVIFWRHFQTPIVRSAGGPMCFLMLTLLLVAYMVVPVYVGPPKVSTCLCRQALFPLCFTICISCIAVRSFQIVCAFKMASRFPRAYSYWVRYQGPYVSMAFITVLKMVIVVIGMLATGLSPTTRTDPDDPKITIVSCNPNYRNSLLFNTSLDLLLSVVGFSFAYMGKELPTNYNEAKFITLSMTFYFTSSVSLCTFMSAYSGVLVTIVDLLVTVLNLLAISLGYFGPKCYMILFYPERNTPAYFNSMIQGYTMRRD
T2 sequence (Q7RTX0 21-852 partner): T1 sequence (Q7RTX0 21-852 partner)

Row | Structure (SMILES) | EC50 [1] [nM] | EC50 [2] [nM]
1 | COC(=O)[C@H](Cc1ccccc1)NC(=O)[C@H](CC(=O)O)NCCCc1ccc(OC)c(O)c1 [Adv, advantame] | 900 | 
2 | COC(=O)[C@H](Cc1ccccc1)NC(=O)[C@H](CC(=O)O)NCCC(C)(C)C [neotame] |  | 2700

From PMC12484785, “Structure and activation mechanism of human sweet taste receptor” (Cell Research, 2025)
